Converted amounts (≈) assume the structure as drawn. Structures can show the parent of a compound that is named as a salt. Where only a bound is given, the exact number is not on record here.

This experiment concerns Pseudomonas aeruginosa AJ 2116. Put plainly: MIC using Pseudomonas aeruginosa AJ 2116 as the test organism. In kind it is cell-based. The note with it: AJ2116, read-out: MIC (Minimum Inhibitory concentration).
Source text: Comparative MIC's for compounds using Pseudomonas aeruginosa AJ 2116 as the test organism are as follows: "MIC" represents the Minimum INhibitory concentration in mcg./ml of the compound required to inhibit the growth of the test organism described.
In the case of `CC1(C)S[C@@H]2[C@H](NC(=O)C(C(=O)O)c3ccccc3)C(=O)N2[C@H]1C(=O)O` (some centres unmarked) [Carbenicillin, reference compound], the MIC is 100 µg/mL (≈ 264 µM).
For `CC1(C)S[C@@H]2[C@H](NC(=O)[C@H](NC(=O)c3nc[nH]c3C(=O)O)c3ccccc3)C(=O)N2[C@H]1C(=O)O` [I, D-α-(4-carboxyimidazole-5-carboxyamido)benzylpenicillin disodium salt monohydrate], the MIC is 12.5 µg/mL.
Under `NC(=O)c1cc[n+](CC2=C(C(=O)[O-])N3C(=O)[C@@H](NC(=O)[C@H](NC(=O)c4nc[nH]c4C(=O)O)c4ccccc4)[C@H]3SC2)cc1` [II, 7-β-[D-(-)-α-(4-carboxyimidazole-5-carbox-amido)-phenylacetoamido]-3-(4-carbamoylpyridinium)methyl-3-cephem-4-carboxylic acid.mixture of K and Na salt.trihydrate] stands 12.5 µg/mL; under `CC1(C)S[C@@H]2[C@H](NC(=O)[C@H](NC(=O)c3nc(O)[nH]c3C(=O)O)c3ccccc3)C(=O)N2[C@H]1C(=O)O` [III, D-α-(2-hydroxy-4-carboxyimidazole-5-carboxamido)benzylpenicillin], 25 µg/mL (≈ 49.7 µM); under `CC1(C)S[C@@H]2[C@H](NC(=O)[C@H](NC(=O)c3nc(S)[nH]c3C(=O)O)c3ccccc3)C(=O)N2[C@H]1C(=O)O` [IV, D-α-(2-mercapto-4-carboxyimidazole-5-carboxamido)benzylpenicillin], 50 µg/mL (≈ 96.2 µM).
For `O=C([O-])C1=C(C[n+]2ccc(CCS(=O)(=O)O)cc2)CS[C@@H]2[C@H](NC(=O)[C@H](NC(=O)c3nc[nH]c3C(=O)O)c3ccccc3)C(=O)N12` [IX, 7-β-[D-(-)-α-(4-carboxyimidazole-5-carboxamido)phenylacetamido]-3-(4-β-sulphoethylpyridinium)-methyl-3-cephem-4-carboxylic acid], the MIC was found to be 12.5 µg/mL (≈ 18.6 µM).
On to `Cc1nc(C(=O)N[C@@H](C(=O)N[C@@H]2C(=O)N3[C@@H]2SC(C)(C)[C@@H]3C(=O)O)c2ccccc2)c(C(=O)O)[nH]1` [V, D-α-(2-methyl-4-carboxyimidazole-5-carboxamido) benzylpenicillin], for which the MIC came to 50 µg/mL (≈ 99.7 µM).
Take `CC1(C)S[C@@H]2[C@H](NC(=O)[C@H](NC(=O)c3nc(Cl)[nH]c3C(=O)O)c3ccccc3)C(=O)N2[C@H]1C(=O)O` [VI, D-α-(2-chloro-4-carboxyimidazole-5-carboxamido)benzylpenicillin]: the MIC was determined as 50 µg/mL (≈ 95.8 µM).
For `CC1(C)S[C@@H]2[C@H](NC(=O)[C@H](NC(=O)c3nc(N)[nH]c3C(=O)O)c3ccccc3)C(=O)N2[C@H]1C(=O)O` [VII, D-α-(2-amino-4-carboxyimidazole-5-carboxamido)benzylpenicillin], the MIC stood at 50 µg/mL (≈ 99.5 µM).
Turning to `Cn1nnnc1SCC1=C(C(=O)O)N2C(=O)[C@@H](NC(=O)[C@H](NC(=O)c3nc[nH]c3C(=O)O)c3ccccc3)[C@H]2SC1` [VIII, 7-β-[-(-)-α-(4-carboxyimidazole-5-carboxamido)phenylacetamido]-3-[[(1-methyl-1H-tetrazol-5-yl)thio]methyl]-3-cephem-4-carboxylic acid], the MIC came to 50 µg/mL (≈ 83.4 µM).
To `CC1(C)S[C@@H]2[C@H](NC(=O)[C@H](N)c3ccccc3)C(=O)N2[C@H]1C(=O)O` [ampicillin, reference compound] belongs > 500 µg/mL.

These data come from patent US4217450A, “Imidazoledicarboxylic acid substituted cephalosporin derivatives” (Ajinomoto Company, Incorporated, priority 1977, dated 1980).
